In the supplement of paper PMC11061612:

How the values were obtained:
EW-11 (Ewing's Sarcoma) [1] = experiment: Bliss excess, mean over the matrix (fraction); higher = more synergy
How it was run: (§1)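 Cell lines in DMEM/F12 or RPMI with 10% FBS were plated in 1536-well plates, held 24 hours at 37°C, 5% CO2, then given two-drug dose matrices for 72 hours (DMSO typically 0.2%). Viability was read by CellTiter-Glo 2.0 luminescence and scaled as inhibition from 0 (vehicle wells) to 1 (blank wells). Combination Emax is the second-highest inhibition in the matrix; Bliss excess is observed combination effect minus expected EA + EB − EA·EB, EA and EB being single-agent effects.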

[2] = tested on: WSU-NHL (B-Cell Non-Hodgkin's Lymphoma); experiment: as above
How it was run: as §1

[3] = tested on: HuCCT1 (Biliary Tract Carcinoma); experiment: combination Emax (second highest fraction inhibited in the dose matrix, 72 h); higher = more inhibition; extreme values may be limits of the assay
How it was run: as §1

A673 (Ewing's Sarcoma) = experiment: as above
How it was run: as §1

[4] = tested on: SNU-449 (Hepatocellular Carcinoma); experiment: as above
How it was run: as §1

EW-11 (Ewing's Sarcoma) [5] = experiment: as above
How it was run: as §1

[6] = tested on: SNU-16 (Gastric Carcinoma); experiment: as above
How it was run: as §1

[7] = tested on: YAPC (Pancreatic Carcinoma); experiment: as above
How it was run: as §1

[8] = tested on: HH (T-Cell Non-Hodgkin's Lymphoma); experiment: as above
How it was run: as §1

[9] = tested on: NUGC-4 (Gastric Carcinoma); experiment: Bliss excess, mean over the matrix (fraction); higher = more synergy
How it was run: as §1

[10] = tested on: Detroit562 (Head and Neck Carcinoma); experiment: as above
How it was run: as §1

[11] = tested on: NCI-H1568 (Lung Adenocarcinoma); experiment: combination Emax (second highest fraction inhibited in the dose matrix, 72 h); higher = more inhibition; extreme values may be limits of the assay
How it was run: as §1

[12] = tested on: OE21 (Esophageal Squamous Cell Carcinoma); experiment: as above
How it was run: as §1

[13] = tested on: FTC-133 (Thyroid Gland Carcinoma); experiment: as above
How it was run: as §1

BE2-M17 (Neuroblastoma) = experiment: as above
How it was run: as §1

[14] = tested on: LCLC-97TM1 (Non-Small Cell Lung Carcinoma); experiment: as above
How it was run: as §1

[15] = tested on: KMRC-20 (Kidney Carcinoma); experiment: as above
How it was run: as §1

BPH-1 (Non-Cancerous) = experiment: as above
How it was run: as §1

[16] = tested on: ALL-PO (B-Lymphoblastic Leukemia); experiment: as above
How it was run: as §1

[17] = tested on: OV-56 (Ovarian Carcinoma); experiment: as above
How it was run: as §1
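For Bliss excess, mean over the matrix in this document: after 72 h of two-drug dosing.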

Row | SMILES | Bliss excess (EW-11 (Ewing's Sarcoma) [1]) | Bliss excess [2] | combination Emax [3] | combination Emax (A673 (Ewing's Sarcoma)) | combination Emax [4] | combination Emax (EW-11 (Ewing's Sarcoma) [5]) | combination Emax [6] | combination Emax [7] | combination Emax [8] | Bliss excess [9] | Bliss excess [10] | combination Emax [11] | combination Emax [12] | combination Emax [13] | combination Emax (BE2-M17 (Neuroblastoma)) | combination Emax [14] | combination Emax [15] | combination Emax (BPH-1 (Non-Cancerous)) | combination Emax [16] | combination Emax [17]
1 | CN(CCO)CC[C@H](CSc1ccccc1)Nc1ccc(S(=O)(=O)NC(=O)c2ccc(N3CCC([C@@H](O)c4ccccc4-c4ccc(Cl)cc4)CC3)cc2)cc1S(=O)(=O)C(F)(F)F [AZD4320] + CC(=O)O[C@H]1C(=O)[C@@]2(C)[C@H]([C@H](OC(=O)c3ccccc3)[C@]3(O)C[C@H](OC(=O)[C@H](O)[C@@H](NC(=O)c4ccccc4)c4ccccc4)C(C)=C1C3(C)C)[C@]1(OC(C)=O)CO[C@@H]1C[C@@H]2O [Paclitaxel] (first compound max 1 µM, 7x7, partner max 3 µM) | 0.0303 | 0.0294 | 0.671 | 1 | 0.414 | 0.927 | 1 | 0.395 | 0.837 | – | – | – | – | – | – | – | – | – | – | –
2 | CN(CCO)CC[C@H](CSc1ccccc1)Nc1ccc(S(=O)(=O)NC(=O)c2ccc(N3CCC([C@@H](O)c4ccccc4-c4ccc(Cl)cc4)CC3)cc2)cc1S(=O)(=O)C(F)(F)F [AZD4320] + CCN(CCO)CCCOc1ccc2c(Nc3cc(CC(=O)Nc4cccc(F)c4)[nH]n3)ncnc2c1 [AZD2811] (first compound max 1 µM, 7x7, partner max 1 µM) | -0.0439 | -0.0295 | 0.136 | 1 | 0.154 | 0.865 | 0.747 | 0.0932 | 0.348 | -0.0407 | 0.0043 | 0.248 | 0.111 | 0.681 | 0.64 | 0.366 | 0.256 | 0.893 | 1 | 0.117
3 | CN(CCO)CC[C@H](CSc1ccccc1)Nc1ccc(S(=O)(=O)NC(=O)c2ccc(N3CCC([C@@H](O)c4ccccc4-c4ccc(Cl)cc4)CC3)cc2)cc1S(=O)(=O)C(F)(F)F [AZD4320] + C[C@@H]1COCCN1C2=NC(=NC(=C2)C3(CC3)[S@](=N)(=O)C)C4=C5C=CNC5=NC=C4 [AZD6738] (first compound max 1 µM, 7x7, partner max 10 µM) | 0.012 | -0.104 | 0.765 | 1 | 0.19 | 0.957 | 0.994 | 0.251 | 0.404 | -0.0172 | -0.015 | 0.522 | 0.84 | 0.947 | 0.93 | 0.87 | 0.721 | 0.441 | 1 | 0.836
4 | CN(CCO)CC[C@H](CSc1ccccc1)Nc1ccc(S(=O)(=O)NC(=O)c2ccc(N3CCC([C@@H](O)c4ccccc4-c4ccc(Cl)cc4)CC3)cc2)cc1S(=O)(=O)C(F)(F)F [AZD4320] + Cc1cc2ncnn2cc1Nc1ncc2c(n1)n(C1CCOCC1)c(=O)n2C [AZD7648] (first compound max 1 µM, 7x7, partner max 10 µM) | -0.0468 | -0.0087 | 0.26 | 0.937 | 0.166 | 0.829 | 0.3 | 0.103 | 0.265 | -0.0725 | -0.0281 | 0.22 | 0.17 | 0.491 | 0.369 | 0.203 | 0.157 | 0.373 | 0.992 | 0.149
5 | CN(CCO)CC[C@H](CSc1ccccc1)Nc1ccc(S(=O)(=O)NC(=O)c2ccc(N3CCC([C@@H](O)c4ccccc4-c4ccc(Cl)cc4)CC3)cc2)cc1S(=O)(=O)C(F)(F)F [AZD4320] + Nc1ccn([C@@H]2O[C@H](CO)[C@@H](O)C2(F)F)c(=O)n1 [Gemcitabine] (first compound max 1 µM, 7x7, partner max 0.3 µM) | 0.0215 | -0.0505 | 0.476 | 0.995 | 0.367 | 0.92 | 0.934 | 0.535 | 0.293 | – | – | – | – | – | – | – | – | – | – | –
6 | COc1nnc2ccc(N3CCC(c4ccc(OCCN5CCN(C)C(=O)[C@H]5C)cc4)CC3)nn12 [AZD5153] + CN(CC[C@H](CSC1=CC=CC=C1)NC2=C(C=C(C=C2)S(=O)(=O)NC(=O)C3=CC=C(C=C3)N4CCC(CC4)[C@H](C5=CC=CC=C5C6=CC=C(C=C6)Cl)O)S(=O)(=O)C(F)(F)F)CCO [AZD4320] (first compound max 1 µM, 7x7, partner max 1 µM) | – | – | – | – | – | – | – | – | – | 0.0299 | 0.0847 | 0.266 | 0.739 | 0.909 | 0.915 | 0.726 | 0.545 | 0.928 | 1 | 0.507
7 | Cc1cc2ncnn2cc1Nc1ncc2c(n1)n(C1CCOCC1)c(=O)n2C [AZD7648] + C=CCn1c(=O)c2cnc(Nc3ccc(N4CCN(C)CC4)cc3)nc2n1-c1cccc(C(C)(C)O)n1 [AZD1775] (first compound max 10 µM, partner max 1 µM) | -0.029 | 0.0072 | 0.692 | 0.594 | 0.333 | 0.599 | 0.885 | 0.533 | 0.431 | -0.0417 | 0.0575 | 0.453 | 0.673 | 0.633 | 0.704 | 0.781 | 0.53 | 0.53 | 0.966 | 0.307
8 | Cc1cc2ncnn2cc1Nc1ncc2c(n1)n(C1CCOCC1)c(=O)n2C [AZD7648] + CCN(CCO)CCCOc1ccc2c(Nc3cc(CC(=O)Nc4cccc(F)c4)[nH]n3)ncnc2c1 [AZD2811] (first compound max 10 µM, 7x7, partner max 1 µM) | -0.0298 | -0.0635 | 0.406 | 0.765 | 0.318 | 0.507 | 0.569 | 0.271 | 0.245 | -0.0257 | -0.0142 | 0.185 | 0.492 | 0.354 | 0.379 | 0.44 | 0.275 | 0.614 | 0.979 | 0.276
9 | CC(=O)c1c(C)c2cnc(Nc3ccc(N4CCNCC4)cn3)nc2n(C2CCCC2)c1=O [Palbociclib] + CN(CC[C@H](CSC1=CC=CC=C1)NC2=C(C=C(C=C2)S(=O)(=O)NC(=O)C3=CC=C(C=C3)N4CCC(CC4)[C@H](C5=CC=CC=C5C6=CC=C(C=C6)Cl)O)S(=O)(=O)C(F)(F)F)CCO [AZD4320] (first compound max 10 µM, 7x7, partner max 1 µM) | – | – | – | – | – | – | – | – | – | -0.0067 | 0.0001 | 0.515 | 0.663 | 0.582 | 0.756 | 0.252 | 0.25 | 0.592 | 1 | 0.289
10 | N#Cc1cnc(Nc2cc(NC[C@H]3CNCCO3)c(C(F)(F)F)cn2)cn1 [SRA737] + C=CCn1c(=O)c2cnc(Nc3ccc(N4CCN(C)CC4)cc3)nc2n1-c1cccc(C(C)(C)O)n1 [AZD1775] (first compound max 10 µM, partner max 1 µM) | 0.0992 | 0.187 | 0.812 | 0.635 | 0.562 | 0.603 | 0.995 | 0.495 | 0.475 | – | – | – | – | – | – | – | – | – | – | –
11 | N#Cc1cnc(Nc2cc(NC[C@H]3CNCCO3)c(C(F)(F)F)cn2)cn1 [SRA737] + CCc1c2c(nc3ccc(O)cc13)-c1cc3c(c(=O)n1C2)COC(=O)[C@]3(O)CC [SN-38] (first compound max 10 µM, 7x7, partner max 0.3 µM) | -0.132 | -0.0324 | 0.847 | 0.945 | 0.704 | 0.682 | 0.995 | 0.696 | 0.452 | – | – | – | – | – | – | – | – | – | – | –
12 | N#Cc1cnc(Nc2cc(NC[C@H]3CNCCO3)c(C(F)(F)F)cn2)cn1 [SRA737] + Nc1ccn([C@@H]2O[C@H](CO)[C@@H](O)C2(F)F)c(=O)n1 [Gemcitabine] (first compound max 10 µM, 7x7, partner max 0.3 µM) | -0.0557 | 0.017 | 0.792 | 0.946 | 0.515 | 0.854 | 1 | 0.655 | 0.634 | – | – | – | – | – | – | – | – | – | – | –
13 | C[C@@H](c1ccc2nccn2c1)n1nnc2ncc(-c3cnn(C)c3)nc21 [Savolitinib] + CN(CC[C@H](CSC1=CC=CC=C1)NC2=C(C=C(C=C2)S(=O)(=O)NC(=O)C3=CC=C(C=C3)N4CCC(CC4)[C@H](C5=CC=CC=C5C6=CC=C(C=C6)Cl)O)S(=O)(=O)C(F)(F)F)CCO [AZD4320] (first compound max 1 µM, 7x7, partner max 1 µM) | – | – | – | – | – | – | – | – | – | -0.0363 | -0.0189 | 0.256 | 0.101 | 0.546 | 0.305 | 0.101 | 0.184 | 0.346 | 0.989 | 0.212
